Read-outs that look alike come from different tables or passages of the source.
Columns and labels:
[1] = target: T1, bovine adrenocortical cytochrome P-45017α (Bos taurus, UniProt P05185); conditions: s. cerevisiae ah22(paα1) culture, 10 µM
T1 sequence (P05185 1-509): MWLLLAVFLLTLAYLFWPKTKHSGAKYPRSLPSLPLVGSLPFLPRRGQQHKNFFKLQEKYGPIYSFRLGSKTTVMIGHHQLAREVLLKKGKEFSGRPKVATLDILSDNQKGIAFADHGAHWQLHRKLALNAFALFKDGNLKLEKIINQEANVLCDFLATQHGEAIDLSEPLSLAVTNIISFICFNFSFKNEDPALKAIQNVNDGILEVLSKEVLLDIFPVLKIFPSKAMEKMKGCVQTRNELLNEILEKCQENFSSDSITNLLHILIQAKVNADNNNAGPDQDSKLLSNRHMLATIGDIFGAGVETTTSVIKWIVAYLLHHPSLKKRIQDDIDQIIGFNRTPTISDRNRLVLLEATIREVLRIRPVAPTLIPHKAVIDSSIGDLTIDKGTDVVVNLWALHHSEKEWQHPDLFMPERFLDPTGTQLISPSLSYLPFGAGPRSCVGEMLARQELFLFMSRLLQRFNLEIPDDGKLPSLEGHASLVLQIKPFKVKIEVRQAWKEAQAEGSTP
Experimental: S. cerevisiae AH22(pAα1) and AH22(pAAH5) were separately grown to each 7×10^6 cells/ml in an SD-synthetic-medium (2.0% glucose, 0.67% yeast nitrogen base without amino acids, and 20 μg/ml histidine). To 5.0 ml each of the medium was added 50 μl of 1 mM progesterone in ethanol solution containing 10 μCi of [^3 H]-progesterone (or 50 μl of 1 mM pregnenolone in ethanol solution containing 10 μCi of [3H]-pregnenolone) and the mixture was cultured while shaking. Each 1.0 ml of the medium was sampled at 0, 2, 5 and 23 hours and centrifugated. After 2.0 ml of dichloromethane was added to 0.8 ml of the supernatant, the mixture was vigorously agitated and centrifugated. The dichloromethane layer (1.0 ml) was evaporated to dryness and the residue was dissolved in 20 μl of ethanol/ethyl acetate (1:1 by volume). Ten μl of the solution was applied to TLC. The TLC was developed with chloroform containing 25% ethyl acetate at room temperature for 50 minutes and radioautographed. The silica gel of the spot on the film was scraped out from the plate and the radio activity of the gel was measured with a liquid scintillation counter.

[2] = target: T1, bovine adrenocortical cytochrome P-45017α; conditions: microsomes, 5 min, pH 7.4
Experimental: After S. cerevisiae AH22(pAα1) was grown to a cell density of 2.0×10^7 cells/ml, the cells were harvested from 1.8 l of the culture broth and suspended in 50 ml of a buffer A (10 mM Tris-HCl (pH 7.5), 2M sorbitol, 0.1 mM DTT and 0.2 mM EDTA). After 20 mg of Zymolyase 100,000 was added to the suspension, the mixture was incubated at 30° C. for 1 hour. The resulting spheroplasts were harvested by centrifugation (5,000 x g for 10 minutes). They were suspended in 100 ml of buffer A and centrifuged. By repeating the centrifugation, the spheroplasts were washed. They were resuspended in 30 ml of a buffer solution (10 mM Tris-HCl (pH 7.5), 0.65M sorbitol and 0.1 mM DTT) and subjected to ultra sonication at 50W for 5 minutes. The mixture was centrifuged at 10,000 x g for 20 minutes, and the supernatant was again centrifuged at 125,000 x g for 70 minutes. The precipitates were suspended in 2.0 ml of 0.1M potassium phosphate buffer (pH 7.4).
A mixture of 3.6 ml of a 100 mM potassium phosphate buffer (pH 7.4) and 100 μl of a 20 mM NADPH aqueous solution was preincubated at 37° C. for 5 minutes. […] Each 1.0 ml of the mixture was sampled at 0, 2 and 10 minutes and centrifugated. After 2.0 ml each of dichloromethane was added, the sample mixtures were vigorously agitated and centrifugated. The dichloromethane layer (1.0 ml) was evaporated to dryness and the residue was treated in the same manner as in Example 6.

[3] = target: T1, bovine adrenocortical cytochrome P-45017α; assay: C17-20-lyase activity of P-45017α-producing yeasts against 17-hydroxyprogesterone; type: cell-based; set-up: made in house; host or cells: Saccharomyces cerevisiae AH22(pAα1), microsomal fraction

CC(=O)[C@H]1CC[C@H]2[C@@H]3CCC4=CC(=O)CC[C@]4(C)[C@H]3CC[C@]12C [progesterone]
conversion of progesterone to 17-hydroxyprogesterone ([1]; 5 h): 87% | conversion of progesterone to 17-hydroxyprogesterone ([1]; 23 h): 97% | added progesterone converted to 17-hydroxyprogesterone ([2]; 2 µM): 88% | added progesterone converted to 17-hydroxyprogesterone ([2]; 10 µM): 49% | added progesterone converted to 17-hydroxyprogesterone ([2]; 50 µM): 17%

CC(=O)[C@@]1(O)CC[C@H]2[C@@H]3CCC4=CC(=O)CC[C@]4(C)[C@H]3CC[C@@]21C [17-hydroxyprogesterone]
C17-20-lyase activity against 17-hydroxyprogesterone [3]: almost no C17-20 -lyase activity

CC(=O)[C@H]1CC[C@H]2[C@@H]3CC=C4C[C@@H](O)CC[C@]4(C)[C@H]3CC[C@]12C [pregnenolone]
conversion of pregnenolone to 17-hydroxypregnenolone ([1]; 2 h): 28%

— US5137822A, “Transformed yeasts having steroid-hydroxylase activity and process for hydroxylation of steroids using the said transformed yeasts” (Director-General of Agency of Industrial Science & …, priority 1987, dated 1992)
